Measurements published in patent US20090203780A1, “Use of a Polyunsaturated Fatty Acid Compound” (priority 2006, published 2009).

Tested on: enteroendocrine STC1-1 cell line
Experiment: not given
Settings: negative control fatty acid; cited from earlier work

| Compound | Induction of CCK (already known) |
| --- | --- |
| CCCCCCCCCC(=O)O [Capric acid] | does not induce CCK |

Tested on: enteroendocrine STC1-1 cell line
Experiment: CCK release from intestinal cells (in-vitro trial, CCK RIA)
Type: cell-based
Design: CCK release (Effects of fatty acids on CCK release): unit not given here
Settings: 100 μM, 1 hour
Experimental: The relative CCK release by a number of different compounds was determined in an in-vitro trial to measure the effect of various free fatty acids on CCK release from intestinal cells.
The enteroendocrine STC1-1 cell line was cultivated at 37° C. in a 5% CO2, 95% air atmosphere in standard culture medium (DMEM). Cells were routinely passaged upon reaching 70-80% confluency by washing the cell layer with PBS and incubating with a solution of trypsin-EDTA. Plating density of 2×10^6 cells by 75 cm^2 was used for routine subculture.
STC1 cells were seeded into 6-well culture plates and incubated with control culture medium, with or without the tested agents, for 1 hour. All agents were tested at a 100 μM concentration in the free fatty acid form. Since fatty acids were diluted into ethanol the effect of ethanol was tested and indicated the baseline CCK levels. […] Effects of bombesin was used as positive control. At the end of incubation the supernatant was collected, centrifuged and immediately frozen at −20° C. for RIA.
Cell viability was checked by microscopic analysis using an MTT cytotoxicity assay, and in addition LDH release was measured.
CCK release was measured using a standard CCK RIA and effects of fatty acids were measured in 6-fold.

| Compound | CCK release compared with other fatty acids (in words) |
| --- | --- |
| CCCCCC=CCC=CCC=CCC=CCCCC(=O)O [Arachidonic acid (20:4), 5,8,11,14-eicosatetraenoic acid] | higher level of CCK release than other related fatty acids |

Same assay, conditions: 100 microM, free fatty acid form, 1 hour incubation, RIA of supernatant, measured in 6-fold, ethanol baseline 53

| Compound | CCK release (Effects of fatty acids on CCK release) |
| --- | --- |
| CCCCCC/C=C/C=C/CCCCCCCC(=O)O (single isomer, unassigned) [CLA 9, 11 isomer] | 135 |
| CCCCCC=CC=CCCCCCCCCC(=O)O (single isomer, unassigned) [CLA 10, 12 isomer] | 133 |
| CCCC/C=C/C=C/C=C\CCCCCCCC(=O)O [Alpha-eleostearic acid (18:3), Alpha-eleostearic acid] | 212 |
| CC/C=C\C/C=C\C/C=C\CCCCCCCC(=O)O [Alpha-linolenic acid (18:3), Alpha-linolenic acid] | 177 |
| CCCCCC=CCC=CCC=CCC=CCCCC(=O)O [Arachidonic acid (20:4), 5,8,11,14-eicosatetraenoic acid] | 392 |
| CCCCCCCCCC(=O)O [Capric acid] | 43 |
| CC/C=C\C/C=C\C/C=C\C/C=C\C/C=C\CCCC(=O)O [Eicosapentanoic acid (20:5), Eicosapentanoic acid] | 164 |
| CCCCC=CC=CC=CCCCCCCCC(=O)O [Gamma-eleostearic acid (18:3), Gamma-eleostearic acid] | 126 |
| CCCCC/C=C\C/C=C\C/C=C\CCCCC(=O)O [Gamma-linolenic acid (18:3), Gamma-linolenic acid] | 140 |
| CC/C=C\C/C=C\C/C=C\CCCC/C=C\CCCC(=O)O [Juniperonic acid (20:4), Juniperonic acid] | 97 |
| CCCCCCCCCCCC(=O)O [Lauric acid] | 118 |
| CCCCC/C=C\C/C=C\CCCCCCCC(=O)O [Linoleic acid (18:2), Linoleic acid] | 68 |
| CCCCCCCC/C=C\CCCCCCCC(=O)O [Oleic acid (18:1), Oleic acid] | 90 |
| CCCC\C=C/C=C/C=C\CCCCCCCC(=O)O [Punicic acid (18:3), Punicic acid] | 320 |
| CCCCC/C=C\C/C=C\CCCC/C=C\CCCC(=O)O [Sciadonic acid (20:3), Sciadonic acid] | 79 |
| CC/C=C\C/C=C\C/C=C\C/C=C\CCCCC(=O)O [Stearidonic acid (18:4), Stearidonic acid] | 69 |
| CCCCCCCC/C=C\CC/C=C\CCCC(=O)O [Taxoleic acid (18:2)] | 82 |
| conjugated linoleic acid [CLA] | 87 |
